Results from ChEMBL document CHEMBL1157381, “Alkaloids from the Australian rainforest tree Ochrosia moorei” (J Nat Prod, 2008).
The source made the active and inactive calls. The rule behind the calls is not given here.

Legend:
Format in all cases: cell-based
[1] = biological target: T1, Glucocorticoid receptor (Homo sapiens) (UniProt P04150); experiment: Inhibition of glucocorticoid receptor-glucocorticoid complex transfected in rat R1 cells assessed as down-regulation of TPA-responsive element proinflammatory gene expression at 10 uM after 24 hrs by beta-galactosidase assay
T1 sequence (whole entry): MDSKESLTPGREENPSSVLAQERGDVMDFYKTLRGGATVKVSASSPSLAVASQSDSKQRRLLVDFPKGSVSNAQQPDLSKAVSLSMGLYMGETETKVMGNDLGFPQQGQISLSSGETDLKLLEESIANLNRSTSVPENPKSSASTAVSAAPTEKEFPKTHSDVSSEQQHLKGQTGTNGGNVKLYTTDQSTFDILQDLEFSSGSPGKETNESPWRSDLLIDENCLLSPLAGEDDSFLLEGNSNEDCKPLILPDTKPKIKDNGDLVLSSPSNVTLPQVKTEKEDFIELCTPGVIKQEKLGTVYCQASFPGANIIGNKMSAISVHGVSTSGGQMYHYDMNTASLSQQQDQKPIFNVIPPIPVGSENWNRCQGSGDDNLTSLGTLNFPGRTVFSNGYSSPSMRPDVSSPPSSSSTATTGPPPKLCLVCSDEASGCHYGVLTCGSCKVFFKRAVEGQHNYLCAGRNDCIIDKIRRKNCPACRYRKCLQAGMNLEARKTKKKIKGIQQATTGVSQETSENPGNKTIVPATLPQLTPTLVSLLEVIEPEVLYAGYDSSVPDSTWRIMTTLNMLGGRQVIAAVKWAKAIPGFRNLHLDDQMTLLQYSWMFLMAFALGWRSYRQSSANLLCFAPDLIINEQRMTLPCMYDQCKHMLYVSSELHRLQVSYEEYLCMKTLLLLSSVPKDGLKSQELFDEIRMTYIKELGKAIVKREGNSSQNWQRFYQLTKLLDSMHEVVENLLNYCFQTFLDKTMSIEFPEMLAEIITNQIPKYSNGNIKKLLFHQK

[2] = biological target: T1, Glucocorticoid receptor (Homo sapiens); experiment: Inhibition of glucocorticoid receptor-glucocorticoid complex transfected in rat R1 cells assessed as down-regulation of TPA-responsive element proinflammatory gene expression at 100 uM after 24 hrs by beta-galactosidase assay; design: scale not given: the % may be the effect or the level left
R1 = experiment: Cytotoxicity against rat R1 cells at 100 uM after 24 hrs by neutral red assay; settings: r1, 24 h
Glucocorticoid receptor = biological target: T2, Glucocorticoid receptor (Homo sapiens, UniProt P04150); experiment: Inhibition of glucocorticoid receptor-glucocorticoid complex transfected in rat R1 cells assessed as down-regulation of TPA-responsive element proinflammatory gene expression after 24 hrs by beta-galactosidase assay
T2 sequence (P04150 whole entry): T1 sequence (whole entry)

| Structure (SMILES) | Activity [1] | Activity [2] [%] | Activity (R1) | IC50 (Glucocorticoid receptor) [µM] |
| --- | --- | --- | --- | --- |
| CC(=O)C1=CN2CC[C@]34c5ccccc5N(C)[C@H]3C[C@H]1C[C@H]24 | inactive |  |  |  |
| C=C[C@H]1[C@H](O[C@H]2O[C@H](CO)[C@@H](O)[C@H](O)[C@H]2O)OC=C(C(=O)OC)[C@H]1Cc1nc(C(=O)O)cc2c1[nH]c1ccccc12 |  | 30 |  |  |
| C=C1c2[nH]c3ccccc3c2CN2CC[C@H]1/C(=C\C)C2 |  | 54 |  |  |
| Cc1c2ccncc2c(C)c2c1[nH]c1ccccc12 [ELLIPTECINE] |  |  | Non-toxic | 90 |
| CN1c2ccccc2[C@]23CCN4C=C(C(=O)CO)[C@H](C[C@H]42)C[C@H]13 | inactive |  |  |  |
| COc1ccc2[nH]c3c(C)c4ccncc4c(C)c3c2c1 |  |  | Non-toxic | 90 |
